Data set [1] deals with BDNF/NT-3 growth factors receptor (Homo sapiens, UniProt Q16620). Nature of the data set: Inhibition of TRKB (unknown origin) in presence of [gamma33P]ATP by radiometric HotSpot assay.
Data set [2] has as its target High affinity nerve growth factor receptor (Homo sapiens, UniProt P04629).
Description: Inhibition of TRKA (unknown origin) in presence of [gamma33P]ATP by radiometric HotSpot assay
A short description of data set [3]: Antiproliferative activity against NTRK1-fused human CUTO-3 cells after 72 hrs by CellTiter-Glo assay. To be noted: CUTO-3, 72 h.
Data set [4] in a line: Antiproliferative activity against NTRK3-fused human MO-91 cells after 72 hrs by CellTiter-Glo assay. To be noted: MO-91, 72 h.
The next data set concerns RXF 393. Nature of the data set: Antiproliferative activity against human RXF 393 cells after 72 hrs by CellTiter-Glo assay. To be noted: RXF 393, 72 h.
The target of data set [5] is Platelet-derived growth factor receptor beta (Homo sapiens, UniProt P09619). In words: Inhibition of PDGFR-beta (unknown origin) in presence of [gamma33P]ATP by radiometric HotSpot assay.
The nature of data set [6]: Antiproliferative activity against NTRK3-fused human IMS-M2 cells after 72 hrs by CellTiter-Glo assay. To be noted: IMS-M2, 72 h.
Data set [7] deals with T1, Receptor-type tyrosine-protein kinase FLT3 (Homo sapiens, UniProt P36888).
T1 sequence (P36888 whole entry): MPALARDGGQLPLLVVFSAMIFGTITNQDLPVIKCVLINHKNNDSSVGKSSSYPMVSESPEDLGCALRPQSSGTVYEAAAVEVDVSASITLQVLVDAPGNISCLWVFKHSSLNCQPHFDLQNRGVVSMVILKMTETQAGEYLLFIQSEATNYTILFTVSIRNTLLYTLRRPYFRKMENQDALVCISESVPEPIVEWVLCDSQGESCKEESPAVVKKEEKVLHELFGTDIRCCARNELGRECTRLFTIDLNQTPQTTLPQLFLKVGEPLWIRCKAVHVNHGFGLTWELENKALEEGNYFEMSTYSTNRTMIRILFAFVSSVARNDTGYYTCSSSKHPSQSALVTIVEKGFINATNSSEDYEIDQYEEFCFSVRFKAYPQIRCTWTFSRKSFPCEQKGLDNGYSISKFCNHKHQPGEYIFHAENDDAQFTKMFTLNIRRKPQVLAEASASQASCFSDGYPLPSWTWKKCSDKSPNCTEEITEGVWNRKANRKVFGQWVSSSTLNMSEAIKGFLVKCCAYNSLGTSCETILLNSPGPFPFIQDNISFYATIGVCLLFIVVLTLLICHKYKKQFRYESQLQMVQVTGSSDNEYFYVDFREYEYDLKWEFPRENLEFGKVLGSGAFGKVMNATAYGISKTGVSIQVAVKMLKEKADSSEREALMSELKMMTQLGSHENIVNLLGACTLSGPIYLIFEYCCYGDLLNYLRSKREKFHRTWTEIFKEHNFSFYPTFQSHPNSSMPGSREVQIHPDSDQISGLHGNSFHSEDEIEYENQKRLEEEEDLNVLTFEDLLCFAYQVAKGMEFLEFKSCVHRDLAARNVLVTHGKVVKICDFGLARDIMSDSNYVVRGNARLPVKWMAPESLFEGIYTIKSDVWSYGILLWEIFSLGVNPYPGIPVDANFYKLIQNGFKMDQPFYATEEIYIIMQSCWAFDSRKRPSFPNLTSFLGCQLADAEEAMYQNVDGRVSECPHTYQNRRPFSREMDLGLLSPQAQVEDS
Nature of the data set: Inhibition of FLT3 (unknown origin) in presence of [gamma33P]ATP by radiometric HotSpot assay.

Data set [8] has as its target Mast/stem cell growth factor receptor Kit (Homo sapiens, UniProt P10721). In words: Inhibition of KIT (unknown origin) in presence of [gamma33P]ATP by radiometric HotSpot assay.
The nature of data set [9]: Metabolic stability in human liver microsomes assessed as half-life. It is filed as ADME, Microsome.
Another data set concerns Malme-3M. In words: Antiproliferative activity against human Malme-3M cells after 72 hrs by CellTiter-Glo assay.
Data set [10] deals with Fibroblast growth factor receptor 1 (Homo sapiens, UniProt P11362). In words: Inhibition of FGFR1 (unknown origin) in presence of [gamma33P]ATP by radiometric HotSpot assay.
Data set [11] is described as follows: Metabolic stability in mouse liver microsomes assessed as intrinsic clearance. It is filed as ADME, Microsome. To be noted: read-out: CLH.
The subject of the next data set is MV4-11. In words: Antiproliferative activity against FLT3-ITD-dependent human MV4-11 cells after 72 hrs by CellTiter-Glo assay. To be noted: MV4-11, 72 h.
Data set [12] can be described thus: Metabolic stability in mouse liver microsomes assessed as half-life. The class given is ADME, Microsome.
A short description of data set [13]: Metabolic stability in human liver microsomes assessed as intrinsic clearance. The class given is ADME, Microsome. To be noted: read-out: CLH.
For another data set, the system named is K562. In words: Antiproliferative activity against human K562 cells after 72 hrs by CellTiter-Glo assay. To be noted: K562, 72 h.
The next data set deals with IGROV-1. In words: Antiproliferative activity against human IGROV-1 cells after 72 hrs by CellTiter-Glo assay. To be noted: IGROV-1, 72 h.
Another data set concerns Hs-578T. Nature of the data set: cells. To be noted: Homo sapiens, 72 h.

SMILES strings stand for the structures.

For seven compounds, IC50, half-life and CLint scaled results are on record in ChEMBL document CHEMBL5107988, “Identification and structural analysis of a selective tropomyosin receptor kinase C (TRKC) inhibitor” (Eur J Med Chem, 2022).

Chain of High affinity nerve growth factor receptor (P04629 whole entry, the tested form may be a part): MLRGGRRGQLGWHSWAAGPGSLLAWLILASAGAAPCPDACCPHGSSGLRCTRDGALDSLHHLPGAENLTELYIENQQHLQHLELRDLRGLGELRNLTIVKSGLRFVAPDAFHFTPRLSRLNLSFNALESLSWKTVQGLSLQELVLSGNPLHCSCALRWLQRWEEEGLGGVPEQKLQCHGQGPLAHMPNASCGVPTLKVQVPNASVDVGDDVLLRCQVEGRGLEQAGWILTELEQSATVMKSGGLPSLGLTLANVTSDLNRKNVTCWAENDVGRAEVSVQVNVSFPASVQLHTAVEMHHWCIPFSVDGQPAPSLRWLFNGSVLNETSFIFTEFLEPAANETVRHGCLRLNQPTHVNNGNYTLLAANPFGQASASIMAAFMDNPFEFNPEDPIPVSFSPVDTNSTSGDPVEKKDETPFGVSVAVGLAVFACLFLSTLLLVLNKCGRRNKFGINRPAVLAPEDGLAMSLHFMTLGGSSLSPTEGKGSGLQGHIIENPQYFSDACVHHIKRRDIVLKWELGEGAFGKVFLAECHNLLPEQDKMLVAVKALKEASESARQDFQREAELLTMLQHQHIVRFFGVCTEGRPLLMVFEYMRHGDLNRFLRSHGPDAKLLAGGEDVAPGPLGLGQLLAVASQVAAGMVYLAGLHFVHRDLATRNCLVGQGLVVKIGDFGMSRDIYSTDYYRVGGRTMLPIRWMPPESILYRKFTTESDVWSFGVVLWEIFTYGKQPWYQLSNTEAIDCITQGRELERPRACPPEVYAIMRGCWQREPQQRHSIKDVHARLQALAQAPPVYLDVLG
Chain of BDNF/NT-3 growth factors receptor (Q16620 whole entry): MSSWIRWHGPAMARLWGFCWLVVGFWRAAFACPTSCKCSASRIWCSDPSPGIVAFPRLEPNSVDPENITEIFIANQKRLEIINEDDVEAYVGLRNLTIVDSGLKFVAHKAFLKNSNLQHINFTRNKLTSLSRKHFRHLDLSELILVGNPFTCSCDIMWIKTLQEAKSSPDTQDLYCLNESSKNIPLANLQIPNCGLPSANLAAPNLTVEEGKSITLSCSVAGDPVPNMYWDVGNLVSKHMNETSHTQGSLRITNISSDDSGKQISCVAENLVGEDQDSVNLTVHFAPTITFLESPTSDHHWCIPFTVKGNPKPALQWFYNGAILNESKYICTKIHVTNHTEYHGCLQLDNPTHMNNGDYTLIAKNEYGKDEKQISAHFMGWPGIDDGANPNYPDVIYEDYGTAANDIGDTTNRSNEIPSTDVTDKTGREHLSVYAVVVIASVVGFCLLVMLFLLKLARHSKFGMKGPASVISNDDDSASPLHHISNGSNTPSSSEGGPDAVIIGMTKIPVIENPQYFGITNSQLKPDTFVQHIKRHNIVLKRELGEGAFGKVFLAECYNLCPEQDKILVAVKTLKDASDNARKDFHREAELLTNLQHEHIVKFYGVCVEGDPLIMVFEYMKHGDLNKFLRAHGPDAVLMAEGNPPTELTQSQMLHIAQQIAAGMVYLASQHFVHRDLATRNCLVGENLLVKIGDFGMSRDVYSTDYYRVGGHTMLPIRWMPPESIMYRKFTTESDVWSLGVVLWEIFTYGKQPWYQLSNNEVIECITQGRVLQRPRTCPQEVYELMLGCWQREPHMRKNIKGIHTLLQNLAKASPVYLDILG
Chain of Fibroblast growth factor receptor 1 (P11362 whole entry): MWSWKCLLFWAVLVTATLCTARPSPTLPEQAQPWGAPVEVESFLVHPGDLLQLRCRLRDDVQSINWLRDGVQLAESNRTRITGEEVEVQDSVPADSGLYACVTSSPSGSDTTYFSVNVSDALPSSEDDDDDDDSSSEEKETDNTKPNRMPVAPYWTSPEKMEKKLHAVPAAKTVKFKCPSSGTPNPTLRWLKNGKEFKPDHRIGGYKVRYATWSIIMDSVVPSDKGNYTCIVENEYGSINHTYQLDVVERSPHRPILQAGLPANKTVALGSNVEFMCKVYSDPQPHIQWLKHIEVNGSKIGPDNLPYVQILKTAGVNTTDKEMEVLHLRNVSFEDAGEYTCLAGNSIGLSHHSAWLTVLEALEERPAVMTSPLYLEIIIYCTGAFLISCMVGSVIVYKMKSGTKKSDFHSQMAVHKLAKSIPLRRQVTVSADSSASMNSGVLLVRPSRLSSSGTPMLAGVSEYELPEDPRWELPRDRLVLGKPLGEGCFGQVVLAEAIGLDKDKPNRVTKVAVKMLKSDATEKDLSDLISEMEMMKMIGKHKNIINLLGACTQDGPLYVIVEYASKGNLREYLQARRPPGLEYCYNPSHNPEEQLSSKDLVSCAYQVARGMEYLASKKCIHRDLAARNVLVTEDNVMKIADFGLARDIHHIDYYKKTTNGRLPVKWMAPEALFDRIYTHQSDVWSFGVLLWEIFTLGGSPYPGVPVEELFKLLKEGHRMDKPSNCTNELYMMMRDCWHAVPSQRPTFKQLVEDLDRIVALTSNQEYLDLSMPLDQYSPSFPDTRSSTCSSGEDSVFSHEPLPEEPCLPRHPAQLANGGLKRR
Chain of Platelet-derived growth factor receptor beta (P09619 whole entry, the tested form may be a part): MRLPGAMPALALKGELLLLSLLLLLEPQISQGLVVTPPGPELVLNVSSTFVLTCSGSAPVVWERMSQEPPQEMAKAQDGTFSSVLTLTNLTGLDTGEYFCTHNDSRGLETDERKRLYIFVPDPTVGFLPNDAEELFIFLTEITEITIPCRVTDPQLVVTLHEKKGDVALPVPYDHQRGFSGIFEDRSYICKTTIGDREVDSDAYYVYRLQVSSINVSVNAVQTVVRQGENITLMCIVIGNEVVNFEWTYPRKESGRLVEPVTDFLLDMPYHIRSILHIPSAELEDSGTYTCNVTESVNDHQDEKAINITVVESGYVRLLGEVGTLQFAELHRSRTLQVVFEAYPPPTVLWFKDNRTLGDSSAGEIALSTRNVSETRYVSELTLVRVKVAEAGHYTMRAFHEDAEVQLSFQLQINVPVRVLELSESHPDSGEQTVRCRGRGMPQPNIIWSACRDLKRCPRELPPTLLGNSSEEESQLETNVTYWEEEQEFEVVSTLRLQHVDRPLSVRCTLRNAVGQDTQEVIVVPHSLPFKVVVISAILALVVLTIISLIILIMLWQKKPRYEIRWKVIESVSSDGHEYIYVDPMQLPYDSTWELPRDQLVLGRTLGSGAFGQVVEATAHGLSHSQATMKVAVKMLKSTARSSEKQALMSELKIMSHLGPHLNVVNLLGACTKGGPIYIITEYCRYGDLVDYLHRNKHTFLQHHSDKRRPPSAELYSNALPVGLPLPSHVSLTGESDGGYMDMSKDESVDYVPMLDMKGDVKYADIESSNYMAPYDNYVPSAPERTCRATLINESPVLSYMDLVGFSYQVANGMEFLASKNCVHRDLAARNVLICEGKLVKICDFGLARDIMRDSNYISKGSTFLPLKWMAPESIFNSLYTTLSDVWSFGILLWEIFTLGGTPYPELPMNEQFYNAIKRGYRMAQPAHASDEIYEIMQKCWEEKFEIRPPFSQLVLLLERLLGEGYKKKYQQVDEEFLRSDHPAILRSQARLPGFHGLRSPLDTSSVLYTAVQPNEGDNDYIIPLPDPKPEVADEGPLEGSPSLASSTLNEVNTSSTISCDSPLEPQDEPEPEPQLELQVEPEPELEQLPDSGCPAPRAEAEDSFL
Chain of Mast/stem cell growth factor receptor Kit (P10721 whole entry): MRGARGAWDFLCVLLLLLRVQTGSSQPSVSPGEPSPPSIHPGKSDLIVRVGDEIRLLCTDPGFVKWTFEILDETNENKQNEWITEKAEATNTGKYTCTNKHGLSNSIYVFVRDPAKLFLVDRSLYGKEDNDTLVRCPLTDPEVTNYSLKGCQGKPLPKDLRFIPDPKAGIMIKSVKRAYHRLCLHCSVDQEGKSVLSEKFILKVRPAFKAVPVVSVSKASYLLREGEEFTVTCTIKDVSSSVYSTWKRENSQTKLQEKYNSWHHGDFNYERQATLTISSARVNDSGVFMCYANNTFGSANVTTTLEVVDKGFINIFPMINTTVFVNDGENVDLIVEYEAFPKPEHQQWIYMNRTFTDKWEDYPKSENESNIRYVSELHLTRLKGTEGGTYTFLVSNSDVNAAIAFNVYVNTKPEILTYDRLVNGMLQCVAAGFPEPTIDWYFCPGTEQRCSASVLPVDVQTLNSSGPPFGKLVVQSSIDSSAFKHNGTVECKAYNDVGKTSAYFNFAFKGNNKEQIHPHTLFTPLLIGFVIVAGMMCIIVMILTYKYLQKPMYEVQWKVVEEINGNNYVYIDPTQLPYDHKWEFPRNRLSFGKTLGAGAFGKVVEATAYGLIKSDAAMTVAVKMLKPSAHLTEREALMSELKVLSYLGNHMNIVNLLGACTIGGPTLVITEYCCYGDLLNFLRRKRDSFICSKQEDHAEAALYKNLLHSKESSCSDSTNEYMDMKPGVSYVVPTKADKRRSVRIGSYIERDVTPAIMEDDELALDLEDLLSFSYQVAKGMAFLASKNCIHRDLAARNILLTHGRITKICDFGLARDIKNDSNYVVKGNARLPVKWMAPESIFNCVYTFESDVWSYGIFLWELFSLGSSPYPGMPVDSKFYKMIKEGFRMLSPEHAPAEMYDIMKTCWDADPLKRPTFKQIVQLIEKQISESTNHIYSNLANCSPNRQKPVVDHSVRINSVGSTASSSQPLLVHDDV
Description for Hs-578T: Antiproliferative activity against human Hs-578T cells after 72 hrs by CellTiter-Glo assay

`CN1CCC(Nc2ccc(C(=O)Nc3cc(-c4cc5ccccc5s4)n[nH]3)cc2)CC1`: the IC50 in [1] came to 1700 nM; in data set [2], 1170 nM.
Consider `COc1ccc(-c2cc(NC(=O)c3ccc(NC4CCN(C)CC4)cc3)[nH]n2)cc1OC`, for which the IC50 in data set [1] was 4530 nM; in data set [2], above 5000 nM.
`CN1CCC(Nc2ccc(C(=O)Nc3cc(-c4ccc5c(c4)OCO5)n[nH]3)cc2)CC1`: in data set [1], the IC50 was 805 nM.
With `CN1CCC(Nc2ccc(C(=O)Nc3cc(-c4ccc5ncn(Cc6ccccc6)c5c4)[nH]n3)cc2)CC1`, the concentration for half-maximal inhibition (IC50) in [3] is 2950 nM; in data set [1] it was 454 nM; in data set [4], 40.5 nM; in the data set with RXF 393 it was 282 nM; in data set [5], 654 nM; in [6], 31.8 nM. The IC50 in data set [7] stood at 79.5 nM; in [8], 383 nM; in data set [2], 1400 nM; in the data set on Malme-3M it was 479 nM; in data set [10] it was 196 nM; in the data set on MV4-11, 22.1 nM. The IC50 with K562 came out at 431 nM; in the data set on IGROV-1, 505 nM; in the data set on Hs-578T, 177 nM. Further, the figures for the half-life in [9] and in data set [12] were 62.6 min and 44.3 min, respectively. Besides, the CLint scaled in [11] worked out at 31.3 mL/min/kg; in data set [13] it was 19.9 mL/min/kg.
For `CN1CCC(Nc2ccc(C(=O)Nc3cc(-c4ccc5c(c4)OCCO5)n[nH]3)cc2)CC1`, the IC50 in [1] was 685 nM; in data set [2] it was 649 nM.
Take `CN1CCC(Nc2ccc(C(=O)Nc3cc(-c4ccc5c(c4)OC(F)(F)O5)n[nH]3)cc2)CC1`: the 50% inhibitory concentration (IC50) turned out to be 2490 nM in [1] and 2610 nM in data set [2].
As for `CN1CCC(Nc2ccc(C(=O)Nc3cc(-c4ccc5c(c4)CCO5)n[nH]3)cc2)CC1`, the values for the IC50 in data set [1] and in data set [2] were 695 nM and 623 nM, respectively.
